# Experimental data published in patent US10111435B2, “Herbicidal compositions containing N-(1,3,4-oxadiazol-2-yl)-aryl carboxylic acid amides” (BAYER CROPSCIENCE AKTIENGESELLSCHAFT, priority 2013, dated 2018).
# What was measured:
# Format in all cases: in vivo
# Avena fatua (AVEFA) = assay: greenhouse post-emergence herbicidal efficacy against AVEFA; conditions: 14 days after application; g of a.i./ha: A1-7 2.5, saflufenacil 2
# How it was run: (§1)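 Post-emergence spray, 300 L/ha, on plants grown from seed in sandy loam (8 cm pots), greenhouse. Visual rating 14 and 21 d post-application vs untreated; 0% = no effect, 100% = complete die-off. Mixture values compared with Colby E^C; positive difference = synergism.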
# [1] = test system: Lolium multiflorum (LOLMU); assay: greenhouse post-emergence herbicidal efficacy against LOLMU; conditions: 14 days after application
# How it was run: as §1
# Setaria viridis (SETVI) = assay: greenhouse post-emergence herbicidal efficacy against SETVI
# How it was run: (§2)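 Steps: sow in sandy loam in 8 cm pots, germinate, spray the emerged plants post-emergence at 300 L/ha, keep under optimum greenhouse conditions, and rate injury visually at 14 and 21 days. Values run from 0% (no effect) to 100% (complete death).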
# Bromus sterilis (BROST) = assay: greenhouse post-emergence herbicidal efficacy against BROST; conditions: 21 days after application; g of a.i./ha: A1-7 10, saflufenacil 8
# How it was run: as §1
# [2] = test system: Amaranthus retroflexus (AMARE); assay: greenhouse post-emergence herbicidal efficacy against AMARE
# Description: (§3) All trials whose results are shown were conducted in a greenhouse by the methodology specified below. The effect of the inventive herbicidal compositions was examined on the following harmful plants 14 and 21 days after application:
# (§4) Echinochloa crus-galli (ECHCG), Eleusine indica (ELEIN), Setaria viridis (SETVI), Amaranthus retroflexus (AMARE), Chenopodium album (CHEAL), Kochia scoparia (KCHSC), Solanum nigrum (SOLNI), Avena fatua (AVEFA), Bromus sterilis (BROST), Lolium multiflorum (LOLMU), Phalaris minor (PHAMI), Poa annua (POAAN), Galium aparine (GALAP), Matricaria inodora (MATIN) and Polygonum convolvulus (POLCO).
# (§5) The harmful plant seeds were sown in pots (diameter 8 cm) with sandy loam soil and germinated under optimal conditions. The inventive herbicidal compositions or the active ingredients alone were applied post-emergence to the planted pots with a spray volume of 300 L/ha. The trial was conducted in a greenhouse under optimum growth conditions. The herbicidal effects were assessed visually by comparison of untreated and treated plants. The percentages mean: 0%=no effects, 100%=the plants die off completely). The percentages are used to calculate interactions between individual treatments and combination treatments according to S. R. Colby, Weeds 15, pages 20 to 22 (1967).
# (§6) The abbreviations mean: • a.i.=active ingredient • E^C=expected value according to Colby (E^C=A+B−A×B/100) • Diff: =difference (%) of measured value from expected value (%) (measured value minus expected value)
# (§7) Assessment: • measured value E is greater than E^C:->synergism (+ diff.) • measured value E equals E^C:->additive effect • measured value E is smaller than E^C:->antagonism(− diff.)
# [3] = test system: Polygonum convolvulus (POLCO); assay: greenhouse post-emergence herbicidal efficacy against POLCO
# How it was run: as §1
# Solanum nigrum (SOLNI) = assay: greenhouse post-emergence herbicidal efficacy against SOLNI
# How it was run: as §2
# DIGSA = assay: greenhouse post-emergence herbicidal efficacy against DIGSA
# How it was run: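 Pot-grown plants in sandy loam sprayed post-emergence at 300 L/ha in the greenhouse, with compositions or single active ingredients. Damage scored visually against untreated plants 14 and 21 days after application (0% none, 100% complete kill); combination interactions evaluated by Colby's expected-value formula.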
# Kochia scoparia (KCHSC) = assay: greenhouse post-emergence herbicidal efficacy against KCHSC
# Description: as §3, §4, §5, §6, §7
# [4] = test system: Chenopodium album (CHEAL); assay: greenhouse post-emergence herbicidal efficacy against CHEAL
# How it was run: as §2
# Eleusine indica (ELEIN) = assay: greenhouse post-emergence herbicidal efficacy against ELEIN; conditions: Eleusine indica, post-emergence; for pest or weed control at 5 g/ha: 5 g of a.i./ha; for pest or weed control at 20 g/ha: 20 g of a.i./ha
# How it was run: as §2
# [5] = test system: Echinochloa crus-galli (ECHCG); assay: greenhouse post-emergence herbicidal efficacy against ECHCG
# How it was run: as §2
# [6] = 21 days after application, 0.5 g of a.i./ha
# [7] = 21 days after application, 2 g of a.i./ha
# [8] = 14 days after application, 0.5 g of a.i./ha
# [9] = 14 days after application, 2 g of a.i./ha
# [10] = 21 days after application, 20 g of a.i./ha
# [11] = 14 days after application, 5 g of a.i./ha
# [12] = 14 days after application, 20 g of a.i./ha
# [13] = 21 days after application, 5 g of a.i./ha
# [14] = 336 h, 14 days after application
# [15] = 504 h, 21 days after application
smiles,measurement,setting,value
CCS(=O)(=O)c1c(C(F)(F)F)ccc(C(=O)Nc2nnc(C)o2)c1Cl [A1-7],Efficacy,Avena fatua (AVEFA),15%
same,Efficacy,"[1]; g of a.i./ha: A1-7 2.5, saflufenacil 2",0%
same,Efficacy,"[1]; g of a.i./ha: A1-7 2.5, saflufenacil 8",0%
same,Efficacy,Setaria viridis (SETVI); [6],30%
same,Efficacy,Setaria viridis (SETVI); [7],75%
same,Efficacy,Bromus sterilis (BROST),5%
same,Efficacy,[2]; [8],30%
same,Efficacy,"[3]; 14 days after application, g of a.i./ha: A1-7 2.5, saflufenacil 2",10%
same,Efficacy,"[3]; 14 days after application, g of a.i./ha: A1-7 2.5, saflufenacil 8",10%
same,Efficacy,"[3]; 14 days after application, g of a.i./ha: A1-7 10, saflufenacil 2",25%
same,Efficacy,"[3]; 14 days after application, g of a.i./ha: A1-7 10, saflufenacil 8",25%
same,Efficacy,"[3]; 21 days after application, g of a.i./ha: A1-7 2.5, saflufenacil 2",0%
same,Efficacy,"[3]; 21 days after application, g of a.i./ha: A1-7 2.5, saflufenacil 8",0%
same,Efficacy,"[3]; 21 days after application, g of a.i./ha: A1-7 10, saflufenacil 2",10%
same,Efficacy,"[3]; 21 days after application, g of a.i./ha: A1-7 10, saflufenacil 8",10%
same,Efficacy,Solanum nigrum (SOLNI); [8],10%
same,Efficacy,Solanum nigrum (SOLNI); [9],20%
same,Efficacy,Solanum nigrum (SOLNI); [6],0%
same,Efficacy,Solanum nigrum (SOLNI); [7],10%
same,Efficacy,DIGSA; [9],20%
same,Efficacy,DIGSA; [7],10%
same,Efficacy,Kochia scoparia (KCHSC); [8],0%
same,Efficacy,Kochia scoparia (KCHSC); [6],10%
same,Efficacy,[4]; [8],0%
same,Efficacy,[4]; [9],50%
same,Efficacy,[4]; [6],10%
same,Efficacy,[4]; [7],20%
CCOC(=O)[C@@H](C)Oc1ccc(Oc2nc3ccc(Cl)cc3o2)cc1 [fenoxaprop-P-ethyl],Efficacy,Setaria viridis (SETVI); [10],80%
same,Efficacy,[2]; [11],0%
same,Efficacy,[2]; [12],0%
same,Efficacy,Solanum nigrum (SOLNI); [11],0%
same,Efficacy,Solanum nigrum (SOLNI); [12],0%
same,Efficacy,Solanum nigrum (SOLNI); [13],0%
same,Efficacy,Solanum nigrum (SOLNI); [10],0%
same,Efficacy,DIGSA; [11],30%
same,Efficacy,DIGSA; [13],10%
same,Efficacy,Kochia scoparia (KCHSC); [11],0%
same,Efficacy,Kochia scoparia (KCHSC); [12],0%
same,Efficacy,Kochia scoparia (KCHSC); [10],0%
same,Efficacy,[4]; [11],0%
same,Efficacy,[4]; [12],0%
same,Efficacy,[4]; [13],0%
same,Efficacy,[4]; [10],0%
CSc1nnc(C(C)(C)C)c(=O)n1N [metribuzin],pest or weed control at 5 g/ha,Eleusine indica (ELEIN); [14],10%
same,pest or weed control at 20 g/ha,Eleusine indica (ELEIN); [14],20%
same,pest or weed control at 5 g/ha,Eleusine indica (ELEIN); [15],0%
same,pest or weed control at 20 g/ha,Eleusine indica (ELEIN); [15],0%
same,Efficacy,Setaria viridis (SETVI); [11],10%
same,Efficacy,Setaria viridis (SETVI); [12],30%
same,Efficacy,Setaria viridis (SETVI); [13],0%
same,Efficacy,Setaria viridis (SETVI); [10],0%
same,Efficacy,[2]; [11],20%
same,Efficacy,[2]; [12],30%
same,Efficacy,[2]; [13],0%
same,Efficacy,[2]; [10],10%
same,Efficacy,Solanum nigrum (SOLNI); [11],0%
same,Efficacy,Solanum nigrum (SOLNI); [12],0%
same,Efficacy,Solanum nigrum (SOLNI); [13],0%
same,Efficacy,Solanum nigrum (SOLNI); [10],0%
same,Efficacy,DIGSA; [11],0%
same,Efficacy,DIGSA; [12],20%
same,Efficacy,Kochia scoparia (KCHSC); [11],20%
same,Efficacy,Kochia scoparia (KCHSC); [12],20%
same,Efficacy,Kochia scoparia (KCHSC); [13],0%
same,Efficacy,Kochia scoparia (KCHSC); [10],10%
same,Efficacy,[4]; [11],30%
same,Efficacy,[4]; [12],30%
same,Efficacy,[4]; [13],20%
same,Efficacy,[4]; [10],20%
same,Efficacy,[5]; [11],10%
same,Efficacy,[5]; [12],30%
same,Efficacy,[5]; [13],0%
same,Efficacy,[5]; [10],0%
